Laboratory results published in ChEMBL document CHEMBL1201862, “PubChem BioAssay data set” (2004).
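In this assay, cells in 96-well plates receive the compound at five concentrations for 48 hours. Endpoints are linearly interpolated between the surrounding concentrations. At the GI50, growth is halved.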 The source made the active and inactive calls. Cut-off read from the data, not from the text of the source: active = GI50 up to about 1.1 µM and inactive = higher.

Experiments:
Assay in all cases: inhibition of tumour cell growth, NCI panel, 48 h
786-0 = tested on: 786-0
A498 = tested on: A498
A549 = tested on: A549
ACHN = tested on: ACHN
BT-549 = tested on: BT-549
CAKI-1 = tested on: CAKI-1
CCRF-CEM = tested on: CCRF-CEM
COLO 205 = tested on: COLO 205
DU-145 = tested on: DU-145
EKVX = tested on: EKVX
HCC 2998 = tested on: HCC 2998
HCT-116 = tested on: HCT-116
HCT-15 = tested on: HCT-15
HL-60 = tested on: HL-60
HOP-62 = tested on: HOP-62
HOP-92 = tested on: HOP-92
HT-29 = tested on: HT-29
Hs-578T = tested on: Hs-578T
IGROV-1 = tested on: IGROV-1
K562 = tested on: K562
KM12 = tested on: KM12
LOX IMVI = tested on: LOX IMVI
M14 = tested on: M14
MCF7 = tested on: MCF7
MDA-MB-231 = tested on: MDA-MB-231
MDA-MB-435 = tested on: MDA-MB-435
MDA-N = tested on: MDA-N
MOLT-4 = tested on: MOLT-4
Malme-3M = tested on: Malme-3M
NCI-H226 = tested on: NCI-H226
NCI-H23 = tested on: NCI-H23
NCI-H460 = tested on: NCI-H460
NCI-H522 = tested on: NCI-H522
NCI/ADR-RES = tested on: NCI/ADR-RES
OVCAR-3 = tested on: OVCAR-3
OVCAR-4 = tested on: OVCAR-4
OVCAR-5 = tested on: OVCAR-5
OVCAR-8 = tested on: OVCAR-8
PC-3 = tested on: PC-3
RXF 393 = tested on: RXF 393
SF-268 = tested on: SF-268
SF-295 = tested on: SF-295
SF-539 = tested on: SF-539
SK-MEL-28 = tested on: SK-MEL-28
SK-MEL-2 = tested on: SK-MEL-2
SK-MEL-5 = tested on: SK-MEL-5
SK-OV-3 = tested on: SK-OV-3
SN12C = tested on: SN12C
SNB-19 = tested on: SNB-19
SR = tested on: SR
SW-620 = tested on: SW-620
T47D = tested on: T47D
TK-10 = tested on: TK-10
U-251 = tested on: U-251
UACC-257 = tested on: UACC-257
UO-31 = tested on: UO-31

## Nc1cc(N)cc(Cc2ccccc2)c1
786-0
  GI50: > 100 µM (inactive)
A498
  GI50: > 100 µM (inactive)
A549
  GI50: > 100 µM (inactive)
ACHN
  GI50: > 100 µM (inactive)
BT-549
  GI50: > 100 µM (inactive)
CAKI-1
  GI50: > 100 µM (inactive)
CCRF-CEM
  GI50: > 100 µM (inactive)
COLO 205
  GI50: > 100 µM (inactive)
DU-145
  GI50: > 100 µM (inactive)
EKVX
  GI50: > 100 µM (inactive)
HCC 2998
  GI50: > 100 µM (inactive)
HCT-116
  GI50: > 100 µM (inactive)
HCT-15
  GI50: > 100 µM
HL-60
  GI50: > 100 µM (inactive)
HOP-62
  GI50: > 100 µM (inactive)
HOP-92
  GI50: > 100 µM (inactive)
HT-29
  GI50: > 100 µM (inactive)
Hs-578T
  GI50: > 100 µM (inactive)
IGROV-1
  GI50: > 100 µM (inactive)
K562
  GI50: > 100 µM (inactive)
KM12
  GI50: > 100 µM (inactive)
LOX IMVI
  GI50: > 100 µM (inactive)
M14
  GI50: > 100 µM (inactive)
MCF7
  GI50: > 100 µM (inactive)
MDA-MB-231
  GI50: > 100 µM (inactive)
MDA-MB-435
  GI50: > 100 µM (inactive)
MDA-N
  GI50: > 100 µM (inactive)
MOLT-4
  GI50: > 100 µM (inactive)
Malme-3M
  GI50: > 100 µM (inactive)
NCI-H226
  GI50: > 100 µM (inactive)
NCI-H23
  GI50: > 100 µM (inactive)
NCI-H460
  GI50: > 100 µM (inactive)
NCI-H522
  GI50: > 100 µM (inactive)
NCI/ADR-RES
  GI50: > 100 µM (inactive)
OVCAR-3
  GI50: > 100 µM (inactive)
OVCAR-4
  GI50: > 100 µM (inactive)
OVCAR-5
  GI50: > 100 µM (inactive)
OVCAR-8
  GI50: > 100 µM (inactive)
PC-3
  GI50: > 100 µM (inactive)
RXF 393
  GI50: > 100 µM (inactive)
SF-268
  GI50: > 100 µM (inactive)
SF-295
  GI50: > 100 µM (inactive)
SF-539
  GI50: > 100 µM (inactive)
SK-MEL-28
  GI50: > 100 µM (inactive)
SK-MEL-2
  GI50: > 100 µM (inactive)
SK-MEL-5
  GI50: > 100 µM (inactive)
SK-OV-3
  GI50: > 100 µM (inactive)
SN12C
  GI50: > 100 µM (inactive)
SNB-19
  GI50: > 100 µM (inactive)
SR
  GI50: > 100 µM (inactive)
SW-620
  GI50: > 100 µM (inactive)
T47D
  GI50: > 100 µM (inactive)
TK-10
  GI50: > 100 µM (inactive)
U-251
  GI50: > 100 µM (inactive)
UACC-257
  GI50: > 100 µM (inactive)
UO-31
  GI50: > 100 µM (inactive)
